Test results: PMC2879362, “Design of Group IIA Secreted/Synovial Phospholipase A2 Inhibitors: An Oxadiazolone Derivative Suppresses Chondrocyte Prostaglandin E2 Secretion” (PLoS ONE, 2010)

Legend:
[1] = target: T1, human GIIAPLA2 (hGIIAPLA2) (Homo sapiens, UniProt P14555); test: In vitro fluorimetric PLA2 assay (β-py-C10-PG substrate); format: biochemical; conditions: 2 µM β-py-C10-PG, 1 ng/mL hGIIAPLA2
T1 construct: hGIIAPLA2 was prepared as previously described [33]; made in house
T1 sequence (P14555 21-144): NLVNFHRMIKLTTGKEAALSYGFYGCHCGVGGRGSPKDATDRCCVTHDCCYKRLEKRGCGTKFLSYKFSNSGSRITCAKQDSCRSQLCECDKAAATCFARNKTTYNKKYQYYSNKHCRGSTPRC
Experimental: (§1) The compounds C1-C8 were submitted to fluorimetric assay to determine their inhibitory potencies and selectivity towards human GIIAPLA2 (hGIIAPLA2) versus porcine group IB PLA2 (pGIBPLA2) (Table 2). GIBPLA2 is an enzyme of the same family as GIIAPLA2 (sPLA2) but is mainly involved in digestion of dietary phospholipids and is secreted by the pancreas. Lipophilicity parameters, log P, of these products are calculated by use of Rekker's fragmental data (Table 2). The molecules C1-C8 are specific inhibitors of hGIIAPLA2 because none inhibited pGIBPLA2 at the highest concentration tested (100 µM). Such selectivity implies that C1-C8 should not interfere with the digestion process.
(§2) Fatty-acid free BSA and pancreatic PLA2 were from Sigma. hGIIAPLA2 was prepared as previously described. The fluorescent substrate for PLA2 assay, 1-hexadecanoyl-2-(10-pyrenedecanoyl)-sn-glycero-3-phosphoglycerol, ammonium salt (β-py-C10-PG) was from Molecular Probes (Eugene). PLA2 activity was evaluated as previously described with β-py-C10-PG used as a substrate (2 µM final concentration). In a total volume of 1 mL, the standard reaction medium contained 50 mM Tris-HCl (pH 7.5), 500 mM NaCl, 1 mM EGTA, 2 µM β-py-C10-PG, 0.1% fatty-acid free BSA and 6 ng/mL pancreatic PLA2 or 1 ng/mL hGIIAPLA2. The fluorescence (λex = 342 nm and λem = 398 nm) of the enzymatic reaction medium was recorded for 3 min with use of a spectrofluorimeter LS 50 (Perkin-Elmer) equipped with a Xenon lamp. The reaction was initiated by the addition of CaCl2 (10 mM, final concentration). The increase in fluorescence was continuously recorded for 1 min, and PLA2 activity was calculated as previously described. When used, the inhibitor was added to the reaction medium after introduction of BSA. The activity is expressed in micromoles of fluorescent β-py-C10-PG hydrolyzed per min. The standard error of the mean of three independent experiments was less than 10%, which allows for the determination of the IC50 values (concentration of inhibitors producing 50% inhibition) of each compound.

[2] = target: T2, porcine group IB PLA2 (pGIBPLA2) (Sus scrofa, UniProt P00592); test: as above; format: biochemical; conditions: 2 µM β-py-C10-PG, 6 ng/mL pancreatic PLA2
T2 construct: purchased Sigma
T2 sequence (P00592 23-146): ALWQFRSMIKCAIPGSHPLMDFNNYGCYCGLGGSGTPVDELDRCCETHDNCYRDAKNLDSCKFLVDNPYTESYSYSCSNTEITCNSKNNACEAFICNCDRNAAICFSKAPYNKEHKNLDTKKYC
Experimental: as §1, §2

[3] = tested on: IL-1β-stimulated PGE2 secretion in articular chondrocytes; test: IL-1β-stimulated PGE2 secretion in articular chondrocytes (EIA); format: cell-based, rabbit; conditions: C1 at 8 µM, IL-1β 1 ng/mL (data not shown)
Experimental: We tested the effect of C8 on the IL-1β-stimulated secretion of PGE2 in chondrocytes. PGE2 synthesis takes place mainly in response to cell activation by IL-1β, and its generation accounts for many of the actions induced by this cytokine. In vitro, IL-1β induces the expression of COX-2 by chondrocytes, which results in increased PGE2 production. PGE2 release thus represents a powerful IL-1β- and PLA2-dependent inflammatory marker in our cell model. Chondrocytes were treated for 20 h with IL-1β alone or 1 h after the addition of C8. […] In DMEM alone, at concentrations of 0.31-, 0.62-, 0.94-, and 1.24-µM, C8 decreased the production of PGE2 induced by IL-1β by 59-, 58-, 74-, and 80-%, respectively (Fig. 4A). In DMEM supplemented with 0.1% BSA, at concentrations of 0.31-, 0.62-, 0.94-, 1.24-, 2.48-, and 4.96-µM, C8 decreased the production of PGE2 induced by IL-1β by 31-, 30-, 45-, 43-, 81-, and 92-%, respectively (Fig. 4B). In DMEM supplemented with 2% FCS, at concentrations of 0.31-, 0.62-, 0.94-, 1.24-, 2.48-, and 4.96-µM, C8 decreased the production of PGE2 induced by IL-1β by 26-, 48-, 49-, 54-, 68-, and 68-%, respectively (Fig. 4C). […] The effect of C8 was then evaluated at the extreme concentrations (0.31- and 4.96-µM) in DMEM supplemented with 2% FCS and containing decreasing (1-, 0.5-, and 0.25-ng/mL) IL-1β concentrations (Table 3). The anti-IL-1β inhibitory effect of C8 at 0.31 µM increases when IL-1β concentration decreases. […] This is probably due to the fact that at 4.96 µM, the inhibitory effect of C8 on IL-1β-induced PGE2 production is maximal. […] Thus, C8, but not C1, decreases the IL-1β-stimulated PGE2 secretion in a dose-dependent manner in the three culture medium compositions used.
Articular chondrocytes were isolated from 5-week-old Fauve de Bourgogne female rabbits (CPA, Orleans, France) and cultured at the first passage in conditions avoiding cell dedifferentiation as previously described. Cells were cultured at 37°C in 12-well plates in Ham's F-12 medium containing 10% FCS, 20 IU/mL penicillin, and 20 µg/mL streptomycin (all from Invitrogen) until nearly confluent. Then medium was replaced with DMEM (Invitrogen) containing 20 IU/mL penicillin, and 20 µg/mL streptomycin and, if necessary, 0.1% fatty acid free BSA (Sigma) or 2% FCS. At this time the C8 compound dissolved in DMSO (Sigma) was added to the medium (the amount of DMSO was kept at 1‰ (v/v) in all the wells). 1 h after the addition of C8, IL-1β (PeproTech) was added to the medium. Consequently, chondrocytes were incubated for 20 h with IL-1β and for 21 h with C8.
20 h after the addition of IL-1β to the chondrocytes, culture media were collected, and aliquots were stored at −80°C until PGE2 and nitrite quantification. PGE2 concentration in culture media was determined by use of an enzyme immunoassay (EIA) kit (PGE2 EIA Kit-monoclonal; Cayman Chemical). Nitrite concentration was determined by a spectrophotometry method based on the Griess reaction. Briefly, 200 µL of culture medium or sodium nitrite (NaNO2, Merck) standard dilutions were mixed with 100 µL Griess reagent [0.5% (w/v) sulphanilic acid (Merck), 0.05% (w/v) N(1-naphtyl)ethylenediamine (Merck), 30% (v/v) acetic acid, 1.5 N HCl] and incubated for 10 min at 50°C. The absorbance was measured at 540 nm.

[4] = tested on: atherosclerosis in apolipoprotein-E-null mice; set-up: method as in PMID 19129734; conditions: cited from earlier work

Compound	IC50 [1]	IC50 [2]	effect on PGE2 secretion stimulated by IL-1β [3]	effect on atherosclerosis [4]
O=c1[nH]c(Cc2ccc(OCCCCCn3ccc4ccccc43)cc2)no1 [C1, 3-{4-[5-(indol-1-yl)pentoxy]benzyl}-4H-1,2,4-oxadiazol-5-one]	5 ± 0.7 µM	> 100 µM	does not decrease	–
O=c1[nH]c(Cc2ccc(OCCCCCOc3ccccc3-c3ccccc3)cc2)no1 [C2]	10 ± 1.5 µM	> 100 µM	–	–
Cc1nc2cc(OCCCCCOc3ccc(Cc4noc(=O)[nH]4)cc3)ccc2s1 [C3]	5 ± 1.2 µM	> 100 µM	–	–
O=c1[nH]c(Cc2ccc(OCCCCCn3ccc4cc(Cl)ccc43)cc2)no1 [C4]	6.5 ± 1.8 µM	> 100 µM	–	–
COc1ccc2c(ccn2CCCCCOc2ccc(Cc3noc(=O)[nH]3)cc2)c1 [C5]	2.5 ± 0.5 µM	> 100 µM	–	–
O=c1[nH]c(Cc2ccc(OCCCCCOc3ccc(-c4ccccc4)cc3)cc2)no1 [C6]	3 ± 0.2 µM	> 100 µM	–	–
O=c1[nH]c(Cc2ccc(OCCCCCOc3ccccc3)cc2)no1 [C7]	35 ± 1.8 µM	> 100 µM	–	–
CCc1c(C(=O)C(N)=O)c2c(OCC(=O)O)cccc2n1Cc1ccccc1 [Varespladib]	–	–	–	reduce atherosclerosis
